Assay [1] has as its system Metabolisierung der Arachidonsäure über den Cyclooxygenaseweg. Description: Inhibition of arachidonic acid metabolism via the cyclooxygenase pathway (method of Brune et al.). The assay is classed as cell-based. An excerpt:
Wie die meisten NSAID (non steroidal antiinflammatory drugs) hemmen auch die meisten Verbindungen der allgemeinen Formel I die Metabolisierung der Arachidonsäure über den Cyclooxygenaseweg mehr oder weniger stark (Methode von Brune et al., Naunyn-Schmiedeberg's Arch. Pharmacol. 315, 269 (1981)). Die IC50 für Verb. 1 in diesem Test beträgt 2.6 x 10-^6 Mol/l.

Assay [2] concerns durch Carrageenan ausgelöste ödem der Rattenpfote. Description: Carrageenan-induced rat paw oedema (method of Winter et al., modified: pure λ-carrageenan as 0,25 % suspension in saline). The assay is classed as in vivo, Ratte. To be noted: po, p.o, λ-carrageenan 0,25 % suspension, read-out: DE50 (the source's name). How it is done: Die Verbindungen der allgemeinen Formel I hemmen das durch Carrageenan ausgelöste ödem der Rattenpfote stark. Zum Nachweis diente die Methode von Winter et al., Proc. Soc. Exp. Bil. Med. 111, 544 (1962), mit der Abwandlung, daß zur ödemauslösung reines λ-carrageenan als 0,25 % Suspension in physiologischer Kochsalzlösung verwendet wurde. Beispielhaft wurde in diesem Testmodell für Verb. 1 die DE50 = 0,5 mg/kg p.o ermittelt.
Background: Carrageenan injected into the paw causes an acute inflammation.

The test system of assay [3] is durch das chemotaktisch wirkende FMLP stimulierte Aggregation von PMN-Leukozyten. Description: Inhibition of FMLP-stimulated aggregation of PMN leukocytes (method of Cunningham et al.). The assay is classed as cell-based. To be noted: Leukocyte. An excerpt:
Darüber hinaus konnte für eine Reihe von Verbindungen der allgemeinen Formel I nachgewiesen werden, daß sie die durch das chemotaktisch wirkende FMLP stimulierte Aggregation von PMN-Leukozyten hemmen und dadurch Anteil an der entzündungshemmenden Wirkung haben (Methode von Cunningham et al., Agents & Actions 11, 583 (1981)). Für Verb. 1 ist die IC50 in diesem Test 3.7 x 10^-5 Mol/l.

With `O=C1C(O)=C(NCc2ccccc2)C(=O)c2ccccc21` [Verb. 1, 2-Benzylamino-3-hydroxy-naphthochinon-1,4], the figures for the IC50 in assay [1] and in assay [3] were 2.6 µM and 37 µM, respectively. Further, the ED50 in assay [2] came to 0.5 mg/kg.

For the origin of these results see EP0149818A2, “1,4-Naphthoquinone derivatives, process for their preparation and their use as medicines” (Troponwerke GmbH & Co. KG, priority 1983, dated 1985).
